Values of other authors as cited in patent US9504685B2, “Method for treating a pulmonary hypertension condition” (Gilead Sciences, Inc., priority 2006, dated 2016).

Key:
ETA receptor = target: T1, ETA receptor (Homo sapiens, UniProt P25101); settings: read-out: affinity for the ETA receptor; cited from earlier work
T1 sequence (P25101 21-427): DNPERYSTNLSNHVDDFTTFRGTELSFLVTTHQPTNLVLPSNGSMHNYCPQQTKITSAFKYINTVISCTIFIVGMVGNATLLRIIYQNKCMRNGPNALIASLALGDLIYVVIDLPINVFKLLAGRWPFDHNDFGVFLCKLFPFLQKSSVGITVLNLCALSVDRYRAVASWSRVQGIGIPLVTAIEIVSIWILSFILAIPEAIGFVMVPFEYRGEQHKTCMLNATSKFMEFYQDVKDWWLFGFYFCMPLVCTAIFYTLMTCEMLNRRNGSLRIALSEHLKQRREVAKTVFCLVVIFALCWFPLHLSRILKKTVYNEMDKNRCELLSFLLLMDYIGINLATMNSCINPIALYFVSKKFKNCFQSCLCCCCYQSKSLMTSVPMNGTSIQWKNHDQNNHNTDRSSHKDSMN

p450 = settings: cited from earlier work

COC(c1ccccc1)(c1ccccc1)[C@H](Oc1nc(C)cc(C)n1)C(=O)O [ambrisentan]
Ki (ETA receptor): ~0.012 nM | drug interactions (p450 induction or inhibition) (p450): no p450 induction or inhibition
